Assays:
Format in all cases: in vivo
[1] = test system: yellow fever mosquito (Aedes aegypti); assay: whole plant or invertebrate; details: 48 h, larval mortality visually assessed after 2 days, read-out: mortality in comparison with untreated controls
Procedure: For evaluating control of yellow fever mosquito (Aedes aegypti) the test unit consisted of 96-well-microtiter plates containing 200 μl of tap water per well and 5-15 freshly hatched A. aegypti larvae.
The active compounds or mixtures were formulated using a solution containing 75% (v/v) water and 25% (v/v) DMSO. Different concentrations of formulated compounds or mixtures were sprayed onto the insect diet at 2.5 μl using a custom built micro atomizer, at two replications.
For experimental mixtures in these tests identical volumes of both mixing partners at the desired concentrations respectively, were mixed together.
After application, microtiter plates were incubated at 28+1° C., 80+5% RH for 2 days. Larval mortality was then visually assessed.

[2] = test system: Orchid thrips (Dichromothrips corbetti); assay: Action on orchid thrips (Dichromothrips corbetti), floral-immersion technique; details: adult thrips, 72 hours after treatment, read-out: mortality in comparison with untreated controls
Procedure: Dichromothrips corbetti adults used for bioassay were obtained from a colony maintained continuously under laboratory conditions. For testing purposes, the test compound is diluted in a 1:1 mixture of acetone:water (vol:vol), plus Kinetic® HV at a rate of 0.01% v/v.
Thrips potency of each compound was evaluated by using a floral-immersion technique. All petals of individual, intact orchid flowers were dipped into treatment solution and allowed to dry in Petri dishes. Treated petals were placed into individual re-sealable plastic along with about 20 adult thrips. All test arenas were held under continuous light and a temperature of about 28° C. for duration of the assay. After 3 days, the numbers of live thrips were counted on each petal. The percent mortality was recorded 72 hours after treatment.

[3] = test system: boll weevil (Anthonomus grandis); assay: Action on boll weevil (Anthonomus grandis), microtiter plate diet test; details: 120 h, egg and larval mortality after 5 days, read-out: mortality in comparison with untreated controls
Procedure: For evaluating control of boll weevil (Anthonomus grandis) the test unit consisted of 96-well-microtiter plates containing an insect diet and 5-10 A. grandis eggs.
The compounds were formulated using a solution containing 75% (v/v) water and 25% (v/v) DMSO. Different concentrations of formulated compounds were sprayed onto the insect diet at 5 μl, using a custom built micro atomizer, at two replications.
After application, microtiter plates were incubated at about 25+1° C. and about 75+5% relative humidity for 5 days. Egg and larval mortality was then visually assessed.

[4] = test system: Silverleaf whitefly (Bemisia argentifolii) (adults); assay: Action on silverleaf whitefly (Bemisia argentifolii) adults, sprayed cotton plants; details: 72 h, 3 days after treatment, read-out: mortality in comparison with untreated controls
Procedure: (§1) The active compounds were formulated by a Tecan liquid handler in 100% cyclohexanone as a 10,000 ppm solution supplied in tubes. The 10,000 ppm solution was serially diluted in 100% cyclohexanone to make interim solutions. These served as stock solutions for which final dilutions were made by the Tecan in 50% acetone:50% water (v/v) into 5 or 10 ml glass vials. A nonionic surfactant (Kinetic®) was included in the solution at a volume of 0.01% (v/v). The vials were then inserted into an automated electrostatic sprayer equipped with an atomizing nozzle for application to plants/insects.
Cotton plants at the cotyledon stage (one plant per pot) were sprayed by an automated electrostatic plant sprayer equipped with an atomizing spray nozzle. The plants were dried in the sprayer fume hood and then removed from the sprayer. Each pot was placed into a plastic cup and about 10 to 12 whitefly adults (approximately 3-5 days old) were introduced. The insects were collected using an aspirator and a nontoxic Tygon® tubing connected to a barrier pipette tip. The tip, containing the collected insects, was then gently inserted into the soil containing the treated plant, allowing insects to crawl out of the tip to reach the foliage for feeding. Cups were covered with a reusable screened lid. Test plants were maintained in a growth room at about 25° C. and about 20-40% relative humidity for 3 days, avoiding direct exposure to fluorescent light (24 hour photoperiod) to prevent trapping of heat inside the cup. Mortality was assessed 3 days after treatment, compared to untreated control plants.

[5] = test system: tobacco budworm (Heliothis virescens); assay: Action on tobacco budworm (Heliothis virescens), microtiter plate diet test; details: 120 h, egg and larval mortality after 5 days, read-out: mortality in comparison with untreated controls
Procedure: For evaluating control of tobacco budworm (Heliothis virescens) the test unit consisted of 96-well-microtiter plates containing an insect diet and 15-25 H. virescens eggs.
The compounds were formulated using a solution containing 75% v/v water and 25% v/v DMSO. Different concentrations of formulated compounds were sprayed onto the insect diet at 10 μl, using a custom-built micro atomizer, at two replications.
After application, microtiter plates were incubated at about 28+1° C. and about 80+5% relative humidity for 5 days. Egg and larval mortality were then visually assessed.

[6] = test system: Diamond back moth (Plutella xylostella); assay: Action on diamond back moth (Plutella xylostella), cabbage leaf dip; details: foliar, 3rd instar larvae on dipped cabbage leaves, 72 hours after treatment, read-out: mortality in comparison with untreated controls
Procedure: The active compound is dissolved at the desired concentration in a mixture of 1:1 (v/v) distilled water: acetone. Surfactant (Kinetic® HV) is added at a rate of 0.01% (v/v). The test solution is prepared at the day of use.
Leaves of cabbage were dipped in test solution and air-dried. Treated leaves were placed in petri dishes lined with moist filter paper and inoculated with ten 3rd instar larvae. Mortality was recorded 72 hours after treatment. Feeding damages were also recorded using a scale of 0-100%.

[7] = test system: Southern armyworm (Spodoptera eridania), 2nd instar larvae; assay: Action on southern armyworm (Spodoptera eridania), 2nd instar larvae, sprayed lima bean plants; details: 96 h, 2nd instar larvae on lima bean plants, 4 days after treatment, read-out: mortality in comparison with untreated controls
Procedure: as §1, with “into 10” for “into 5”, “or 20” for “or 10”
Lima bean plants (variety Sieve) were grown 2 plants to a pot and selected for treatment at the 1st true leaf stage. Test solutions were sprayed onto the foliage by an automated electrostatic plant sprayer equipped with an atomizing spray nozzle. The plants were dried in the sprayer fume hood and then removed from the sprayer. Each pot was placed into perforated plastic bags with a zip closure. About 10 to 11 armyworm larvae were placed into the bag and the bags zipped closed. Test plants were maintained in a growth room at about 25° C. and about 20-40% relative humidity for 4 days, avoiding direct exposure to fluorescent light (24 hour photoperiod) to prevent trapping of heat inside the bags. Mortality and reduced feeding were assessed 4 days after treatment, compared to untreated control plants.

SMILES | mortality at 800 ppm [1] | mortality at 500 ppm [2] | mortality at 800 ppm [3] | mortality at 300 ppm [4] | mortality at 800 ppm [5] | mortality at 500 ppm [6] | mortality at 300 ppm [7]
CC(C)c1ccccc1NC(=S)N/N=C/c1ccc(-c2cc(NC(=O)c3ccc(OC(F)(F)F)cc3)n(C)n2)cc1 [Compound C-1, N-[5-[4-[(E)-[(2-isopropylphenyl)carbamothioylhydrazono]methyl]phenyl]-2-methyl-pyrazol-3-yl]-4-(trifluoromethoxy)benzamide] | ≥ 50% | ≥ 75% | ≥ 75% | ≥ 75% | ≥ 75% | ≥ 75% | ≥ 75%
CC(C)c1ccccc1NC(=S)N/N=C/c1ccc(-c2cc(OCc3ccc(OC(F)(F)F)cc3)n(C)n2)cc1 [Compound C-10, 1-(2-isopropylphenyl)-3-[(E)-[4-[1-methyl-5-[[4-(trifluoromethoxy)phenyl]methoxy]pyrazol-3-yl]phenyl]methyleneamino]thiourea] |  | ≥ 75% | ≥ 75% | ≥ 75% | ≥ 75% | ≥ 75% | ≥ 75%
CC(C)c1ccccc1NC(=S)N/N=C/c1ccc(-c2cc(COc3ccc(OC(F)(F)F)cc3)n(C)n2)cc1 [Compound C-52, 1-(2-isopropylphenyl)-3-[(E)-[4-[1-methyl-5-[[4-(trifluoromethoxy)phenoxy]methyl]pyrazol-3-yl]phenyl]methyleneamino]thiourea] | ≥ 50% | ≥ 75% | ≥ 75% | ≥ 75% | ≥ 75% | ≥ 75% | ≥ 75%
CC(C)c1ccccc1NC(=S)N/N=C/c1ccc(-c2cc(NC(=N)c3ccc(OC(F)(F)F)cc3)n(C)n2)cc1 [Compound C-5, 1-(2-isopropylphenyl)-3-[(E)-[4-[1-methyl-5-[[4-(trifluoromethoxy)benzenecarboximidoyl]amino]pyrazol-3-yl]phenyl]methyleneamino]thiourea] | ≥ 50% | ≥ 75% | ≥ 75% |  | ≥ 75% | ≥ 75% | ≥ 75%

Reference: US12528800B2, “Pesticidal compounds” (BASF SE, priority 2018, dated 2026)
